Legend:
[1] = system: Lewis pulmonary carcinoma (LLC); test: LLC metastasizing with surgical resection of the primary tumor node, alone and with Cyclophosphane; assay type: in vivo, C57BL/6 female mice; details: 96 hour interval, 100 µg/kg
Protocol: An important property of the compounds is their ability to manifest pharmacological activity on the model with resection of the primary tumor node and not to lower therapeutic efficacy of respective antitumor drugs. […] Surgical resection of the primary tumor node was performed by day 13 following tumor transplantation. The test anitumor compounds were administered according to two dosage regimens:
Dosage regimen 1 - animals were administered compound III from day 1 till day 13 of experiment at a dose 500 µg/kg (group 1); Cyclophosphane was administered intraperitoneally two times before operation with 96 hour interval at a dose 100 µg/kg (group 2); combined administration of compound III and Cyclophosphane was similar to administration of substances in groups 1 and 2 (group 3). Number of metastases was calculated by day 29 of experiment;
Dosage regimen 2 - animals were administered compound III from day 14 of experiment (commencement of administration 24 hours post operation) till day 28 (group 4); Cyclophosphane was administered twice post operation with 96 hour interval at a dose 100 µg/kg (group 5); combined administration of compound III and Cyclophosphane similar to administration of substances in groups 4 and 5 (group 6). Antimetastatic efficacy of the drugs was considered by day 29 of experiment.

[2] = system: peripheral blood neutrophils; test: Activity of peripheral blood neutrophils in mice with LLC; assay type: in vivo, C57BL/6 female mice; details: Cyclophosphane 5 times 20.0 mg/kg (in 48 hours) for 10 days
Protocol: Experiments were carried out on C57BL/6 female mice with intramuscularly transplanted LLC carcinoma. Activity of neutrophils was measured by days 11 and 14.
• control - animals with LLC tumor, 10 animals; • animals with LLC tumor + compound III at a dose 500.0 µg/kg for 10 days. 8 animals; • animals with LLC tumor + Cyclophosphane 5 times at a dose 20.0 mg/kg (in 48 hours) for 10 days, 8 animals; • compound III and Cyclophosphane according to the above dosage regimen, 8 animals.
Experiment duration was 14 days.

[3] = regimen 1: intraperitoneally two times before operation
[4] = regimen 2: twice post operation

SMILES: O=P1(N(CCCl)CCCl)NCCCO1 (stereo not drawn) [Cyclophosphane, reference compound]
- Mean number of metastases [1, 3]: 19.5 ± 5.1
- Metastasizing inhibition percent [1, 3]: 43.9%
- Metastasizing rate (%) [1, 3]: 100%
- Mean number of metastases [1, 4]: 18.0 ± 4.3
- Metastasizing inhibition percent [1, 4]: 51.5%
- Metastasizing rate (%) [1, 4]: 100%
- Percent of active neutrophils ([2]; Background): 21.5 ± 3.4%
- Percent of active neutrophils ([2]; day 11): 7.6 ± 2.0%
- Percent of active neutrophils ([2]; day 14): 20.6 ± 6.0%

Reference: EP2229935A1, “Peptide derivatives or pharmaceutically acceptable salts thereof, method for producing the same, use of said derivatives and pharmaceutical composition” (Nebolsin, Vladimir Evgenievich, priority 1997, dated 1999)
